Measured values as given in patent US20250059196A1 (SHANGHAI HANSOH BIOMEDICAL CO., LTD., priority 2021, published 2025).

How the values were obtained:
OCI-Ly3 cells = test: Inhibition of proliferation of OCI-Ly3 cells (CellTiter-Glo); assay type: cell-based, human; conditions: Homo sapiens, 96 h incubation, read-out: Inhibition test of proliferation of OCI-Ly3 cells IC50
In short: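 OCI-Ly3 cells were plated and dosed the next day with 9 concentrations in 3-fold dilutions from 1000 nM to 0.15 nM. Cells were incubated 96 h, and viability was read by CellTiter-Glo luminescence. IC50 was fitted by four-parameter variable-slope log(inhibitor)-response regression.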

[1] = target: MALT1 protease activity in TMD8 cells (substrate BCL-10) (Homo sapiens (Human), UniProt Q9UDY8); test: Intracellular MALT1 protease activity detection (BCL-10 ELISA in TMD8 cells); assay type: cell-based; conditions: undigested BCL-10 by ELISA, 30 min compound then 2 h stimulation cocktail, read-out: Bcl10 TMD8 IC50
In short: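 TMD8 cells treated 30 min with compound (10000-1.5 nM, 9 points, 3-fold), then stimulated 2 h with cell stimulation cocktail. Undigested BCL-10 in lysates quantified by sandwich ELISA with TMB colour read-out; IC50 from four-parameter variable-slope fit.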

[2] = system: OCI-LY3 cell subcutaneous xenograft tumor; test: Tumor inhibition in OCI-LY3 subcutaneous xenograft NOG mouse model of human diffuse large B-cell lymphoma; assay type: in vivo; conditions: NOG mice, 30 mg, BID × 4 weeks, oral; for Weight Day 28: in g (unit assumed); for Tumor volume (Mean ± SD) Day 28: vehicle group 1274 ± 82
Protocol: The efficacy of test drugs was evaluated in OCI-LY3 mouse subcutaneous tumor model of human diffuse large B-cell lymphoma
• 1. Animal: NOG mice, female, 6-8 weeks old, weighing 18-22 grams, a total of 65 mice were needed. Provided by Beijing Vital River Laboratory Animal Technology Co., Ltd. or other qualified suppliers. • 2. Cell: Human diffuse large B-cell lymphoma OCI-LY3 cells were cultured in vitro as monolayers and conventional digestion treatment with trypsin-EDTA was carried out twice a week for passage. When the cell confluence was 80%-90% and the number reached the required number, cells were collected, counted, and inoculated. • 3. Grouping for vaccination: Cells (5×10^6 cells+Matrigel/0.2 ml) were inoculated subcutaneously into each mouse. The growth of animals and transplanted tumors were observed regularly. When the tumor grew to a volume of about 150-200 mm^3, the tumor volume of each mouse was calculated, and the mice were divided into random groups according to tumor volume and body weight. The calculation formula of tumor volume was V=0.5a×b^2, wherein a and b represented the long and short diameters of the tumor, respectively. • 4. Administration: According to the grouping results, the test drug was started to be administered (administration method: oral administration; Administration volume: 10 mL/kg; Administration frequency: 2 times/day; Administration cycle: 28 days; Vehicle: 10% solutol HS15-0.25% CMC-Na). Tumors were measured and weighed twice a week after starting administration of test drugs. • 5. Animals were euthanized after the experiment. • 6. Data processing: The tumor inhibitory efficacy of the compound was evaluated by TGI (%) or relative tumor proliferation rate T/C (%). TGI (%) reflects the tumor growth inhibition rate. Calculation of TGI (%): TGI (%)=[(1−(average tumor volume at the end of administration in a treatment group−average tumor volume at the beginning of administration in the treatment group))/(average tumor volume at the end of administration in the solvent control group−average tumor volume at the beginning of administration in the solvent control group)]×100%.
Relative tumor proliferation rate T/C (%): The calculation formulas are as follows: T/C %=TRTV/CRTV×100% (TRTV: RTV of treatment group; CRTV: RTV of negative control group). The relative tumor volume (RTV) was calculated based on the results of tumor measurement. The calculation formula is RTV=Vt/V0, where V0 is the average tumor volume measured at grouping for administration (i.e. d0), Vt is the average tumor volume at a certain measurement, and TRTV and CRTV take the data on the same day.
After the experiment, the tumor weight was measured, and the T/Cweight percentage was calculated. Tweight and Cweight represented the tumor weight of the administration group and the vehicle control group, respectively.
Remarks: The data in parentheses indicate the tumor volume corresponding to the vehicle group (i.e., the control group) at the corresponding time in this example.

MALT1 protease activity in TMD8 cells (substrate BCL-10), sequence (Q9UDY8 whole entry): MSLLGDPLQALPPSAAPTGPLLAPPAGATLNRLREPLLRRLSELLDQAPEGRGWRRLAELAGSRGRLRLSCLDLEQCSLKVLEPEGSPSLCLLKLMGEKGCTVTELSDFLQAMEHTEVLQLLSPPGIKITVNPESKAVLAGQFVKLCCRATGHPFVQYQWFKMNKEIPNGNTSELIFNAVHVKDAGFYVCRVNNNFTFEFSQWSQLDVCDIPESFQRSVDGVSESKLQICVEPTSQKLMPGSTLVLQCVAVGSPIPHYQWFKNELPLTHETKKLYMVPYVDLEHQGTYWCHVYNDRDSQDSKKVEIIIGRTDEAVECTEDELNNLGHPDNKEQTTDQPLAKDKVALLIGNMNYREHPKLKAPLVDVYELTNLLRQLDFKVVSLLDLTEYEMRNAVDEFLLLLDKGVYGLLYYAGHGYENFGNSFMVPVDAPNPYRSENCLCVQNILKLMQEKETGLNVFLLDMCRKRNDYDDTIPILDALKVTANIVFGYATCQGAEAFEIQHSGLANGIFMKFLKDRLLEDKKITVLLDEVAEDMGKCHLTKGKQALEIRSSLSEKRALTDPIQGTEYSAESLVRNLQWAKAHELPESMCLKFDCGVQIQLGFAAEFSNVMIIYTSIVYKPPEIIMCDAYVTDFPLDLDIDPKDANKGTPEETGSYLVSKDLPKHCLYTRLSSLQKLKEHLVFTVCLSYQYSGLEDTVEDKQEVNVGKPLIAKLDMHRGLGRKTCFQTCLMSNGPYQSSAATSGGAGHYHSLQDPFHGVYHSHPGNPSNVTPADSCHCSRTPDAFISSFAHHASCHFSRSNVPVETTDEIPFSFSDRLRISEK

O=C(Nc1ccnc(C(F)(F)F)c1)c1cnn(-c2ccc3c4c(cccc24)C(=O)N3)c1C1CC1 [Example 55, 5-cyclopropyl-1-(2-oxo-1,2-dihydrobenzo[cd]indol-6-yl)-N-(2-(trifluoromethyl)pyridin-4-yl)-1H-pyrazole-4-carboxamide]
IC50 (OCI-Ly3 cells): 211 nM
IC50 [1]: 50 nM
TGI (%) Day 28 [2]: 87.99%
ΔT/ΔC(%) Day 28 [2]: 22.76%
Weight Day 28 [2]: 21.15 ± 0.72
Tumor volume (Mean ± SD) Day 28 [2]: 287 ± 25 (1274 ± 82) mm^3

O=C(Nc1cnc(-n2nccn2)c(C(F)(F)F)c1)c1cnn(-c2ccc3c4c(cccc24)C(=O)N3)c1C(F)(F)F [Example 18, N-(6-(2H-1,2,3-triazol-2-yl)-5-trifluoromethylpyridin-3-yl)-1-(2-oxo-1,2-dihydrobenzo[cd]indol-6-yl)-5-trifluoromethyl-1H-pyrazole-4-carboxamide]
IC50 (OCI-Ly3 cells): 88 nM
IC50 [1]: 61 nM
TGI (%) Day 28 [2]: 62.73%
ΔT/ΔC(%) Day 28 [2]: 43.82%
Weight Day 28 [2]: 21.03 ± 0.42
Tumor volume (Mean ± SD) Day 28 [2]: 635 ± 46 (1274 ± 82) mm^3

O=C(Nc1ccc(-n2nccn2)c(Cl)c1)c1cnn(-c2ccc3c4c(cccc24)C(=O)N3)c1C(F)(F)F [Example 53, N-(3-chloro-4-(2H-1,2,3-triazol-2-yl)phenyl)-1-(2-oxo-1,2-dihydrobenzo[cd]indol-6-yl)-5-(trifluoromethyl)-1H-pyrazole-4-carboxamide]
IC50 (OCI-Ly3 cells): 101 nM
IC50 [1]: 56 nM
TGI (%) Day 28 [2]: 67.23%
ΔT/ΔC(%) Day 28 [2]: 41.76%
Weight Day 28 [2]: 20.06 ± 1.08
Tumor volume (Mean ± SD) Day 28 [2]: 519 ± 89 (1274 ± 82) mm^3
